{
  "source": "patent US4508663A",
  "about": "“Process for preparing thiosulfenamide derivatives of N-phosphonomethylglycinonitriles” (Monsanto Company, priority 1983, dated 1985)",
  "assay_in_all_cases": "post-emergence herbicidal activity, greenhouse",
  "type_in_all_cases": "in vivo",
  "key": {"Barnyardgrass": {"tested_on": "Barnyardgrass", "conditions": "4 WAT", "outline": "(§1)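 Plants grown from seed or perennial propagules in greenhouse soil pans were sprayed at two to three weeks with compound solution or suspension containing about 0.4% emulsifier, at the stated application rates. Injury relative to untreated controls was scored at approximately two and four weeks after treatment on a post-emergence activity index.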"}, "Canada Thistle": {"tested_on": "Canada Thistle", "conditions": "Table I, 4 WAT", "outline": "as §1"}, "Cocklebur": {"tested_on": "Cocklebur", "conditions": "4 WAT", "outline": "as §1"}, "Crabgrass": {"tested_on": "Crabgrass", "conditions": "Table II, 4 WAT", "outline": "as §1"}, "Downy Brome": {"tested_on": "Downy Brome", "conditions": "4 WAT", "outline": "as §1"}, "Hemp Sesbania": {"tested_on": "Hemp Sesbania", "conditions": "Table II, 4 WAT", "outline": "as §1"}, "Johnsongrass": {"tested_on": "Johnsongrass", "conditions": "Table I, 4 WAT", "outline": "as §1"}, "Lambsquarters": {"tested_on": "Lambsquarters", "conditions": "4 WAT", "outline": "as §1"}, "Morningglory": {"tested_on": "Morningglory", "conditions": "4 WAT", "outline": "as §1"}, "Panicum Spp": {"tested_on": "Panicum Spp", "conditions": "Table II, 4 WAT", "outline": "as §1"}, "Quackgrass": {"tested_on": "Quackgrass", "conditions": "Table I, 4 WAT", "outline": "as §1"}, "Rice": {"tested_on": "Rice", "conditions": "Table II, 4 WAT", "outline": "as §1"}, "Smartweed": {"tested_on": "Smartweed", "conditions": "4 WAT", "outline": "as §1"}, "Sorghum": {"tested_on": "Sorghum", "conditions": "Table II, 4 WAT", "outline": "as §1"}, "Soybean": {"tested_on": "Soybean", "conditions": "Table II, 4 WAT", "outline": "as §1"}, "Sugar Beet": {"tested_on": "Sugar Beet", "conditions": "Table II, 4 WAT", "outline": "as §1"}, "Velvetleaf": {"tested_on": "Velvetleaf", "conditions": "4 WAT", "outline": "as §1"}, "Wheat": {"tested_on": "Wheat", "conditions": "Table II, 4 WAT", "outline": "as §1"}, "Wild Buckwheat": {"tested_on": "Wild Buckwheat", "conditions": "Table II, 4 WAT", "outline": "as §1"}, "Yellow Nutsedge": {"tested_on": "Yellow Nutsedge", "conditions": "Table I, 4 WAT", "outline": "as §1"}},
  "data": [
    {"smiles": "CC(C)CCSSN(CC#N)CP(=O)(Oc1ccccc1)Oc1ccccc1", "note": "[V, Phosphonic acid, [[(cyanomethyl)[(3-methylbutyl)-dithio]amino]methyl]-, diphenyl ester]", "values": [
      {"measurement": "post-emergence herbicidal activity index", "setting": "Barnyardgrass; Table I, 5.6 kg/h", "value": "2 (50-74% control)"},
      {"measurement": "post-emergence herbicidal activity index", "setting": "Barnyardgrass; Table I, 11.2 kg/h", "value": "3 (75-99% control)"},
      {"measurement": "post-emergence herbicidal activity index", "setting": "Barnyardgrass; Table II, 1.12 kg/h", "value": "1 (25-49% control)"},
      {"measurement": "post-emergence herbicidal activity index", "setting": "Barnyardgrass; Table II, 5.6 kg/h", "value": "3 (75-99% control)"},
      {"measurement": "post-emergence herbicidal activity index", "setting": "Canada Thistle; 5.6 kg/h", "value": "2 (50-74% control)"},
      {"measurement": "post-emergence herbicidal activity index", "setting": "Canada Thistle; 11.2 kg/h", "value": "1 (25-49% control)"},
      {"measurement": "post-emergence herbicidal activity index", "setting": "Cocklebur; Table I, 5.6 kg/h", "value": "2 (50-74% control)"},
      {"measurement": "post-emergence herbicidal activity index", "setting": "Cocklebur; Table I, 11.2 kg/h", "value": "3 (75-99% control)"},
      {"measurement": "post-emergence herbicidal activity index", "setting": "Cocklebur; Table II, 1.12 kg/h", "value": "1 (25-49% control)"},
      {"measurement": "post-emergence herbicidal activity index", "setting": "Cocklebur; Table II, 5.6 kg/h", "value": "3 (75-99% control)"},
      {"measurement": "post-emergence herbicidal activity index", "setting": "Crabgrass; 1.12 kg/h", "value": "1 (25-49% control)"},
      {"measurement": "post-emergence herbicidal activity index", "setting": "Crabgrass; 5.6 kg/h", "value": "3 (75-99% control)"},
      {"measurement": "post-emergence herbicidal activity index", "setting": "Downy Brome; Table I, 5.6 kg/h", "value": "2 (50-74% control)"},
      {"measurement": "post-emergence herbicidal activity index", "setting": "Downy Brome; Table I, 11.2 kg/h", "value": "2 (50-74% control)"},
      {"measurement": "post-emergence herbicidal activity index", "setting": "Downy Brome; Table II, 1.12 kg/h", "value": "2 (50-74% control)"},
      {"measurement": "post-emergence herbicidal activity index", "setting": "Downy Brome; Table II, 5.6 kg/h", "value": "2 (50-74% control)"},
      {"measurement": "post-emergence herbicidal activity index", "setting": "Hemp Sesbania; 1.12 kg/h", "value": "0 (0-24% control)"},
      {"measurement": "post-emergence herbicidal activity index", "setting": "Hemp Sesbania; 5.6 kg/h", "value": "1 (25-49% control)"},
      {"measurement": "post-emergence herbicidal activity index", "setting": "Johnsongrass; 5.6 kg/h", "value": "1 (25-49% control)"},
      {"measurement": "post-emergence herbicidal activity index", "setting": "Johnsongrass; 11.2 kg/h", "value": "3 (75-99% control)"},
      {"measurement": "post-emergence herbicidal activity index", "setting": "Lambsquarters; Table I, 5.6 kg/h", "value": "4 (100% control)"},
      {"measurement": "post-emergence herbicidal activity index", "setting": "Lambsquarters; Table I, 11.2 kg/h", "value": "3 (75-99% control)"},
      {"measurement": "post-emergence herbicidal activity index", "setting": "Lambsquarters; Table II, 1.12 kg/h", "value": "1 (25-49% control)"},
      {"measurement": "post-emergence herbicidal activity index", "setting": "Lambsquarters; Table II, 5.6 kg/h", "value": "3 (75-99% control)"},
      {"measurement": "post-emergence herbicidal activity index", "setting": "Morningglory; Table I, 5.6 kg/h", "value": "2 (50-74% control)"},
      {"measurement": "post-emergence herbicidal activity index", "setting": "Morningglory; Table I, 11.2 kg/h", "value": "2 (50-74% control)"},
      {"measurement": "post-emergence herbicidal activity index", "setting": "Morningglory; Table II, 1.12 kg/h", "value": "1 (25-49% control)"},
      {"measurement": "post-emergence herbicidal activity index", "setting": "Morningglory; Table II, 5.6 kg/h", "value": "2 (50-74% control)"},
      {"measurement": "post-emergence herbicidal activity index", "setting": "Panicum Spp; 1.12 kg/h", "value": "0 (0-24% control)"},
      {"measurement": "post-emergence herbicidal activity index", "setting": "Panicum Spp; 5.6 kg/h", "value": "1 (25-49% control)"},
      {"measurement": "post-emergence herbicidal activity index", "setting": "Quackgrass; 5.6 kg/h", "value": "1 (25-49% control)"},
      {"measurement": "post-emergence herbicidal activity index", "setting": "Quackgrass; 11.2 kg/h", "value": "2 (50-74% control)"},
      {"measurement": "post-emergence herbicidal activity index", "setting": "Rice; 1.12 kg/h", "value": "0 (0-24% control)"},
      {"measurement": "post-emergence herbicidal activity index", "setting": "Rice; 5.6 kg/h", "value": "1 (25-49% control)"},
      {"measurement": "post-emergence herbicidal activity index", "setting": "Smartweed; Table I, 5.6 kg/h", "value": "1 (25-49% control)"},
      {"measurement": "post-emergence herbicidal activity index", "setting": "Smartweed; Table I, 11.2 kg/h", "value": "3 (75-99% control)"},
      {"measurement": "post-emergence herbicidal activity index", "setting": "Smartweed; Table II, 1.12 kg/h", "value": "0 (0-24% control)"},
      {"measurement": "post-emergence herbicidal activity index", "setting": "Smartweed; Table II, 5.6 kg/h", "value": "1 (25-49% control)"},
      {"measurement": "post-emergence herbicidal activity index", "setting": "Sorghum; 1.12 kg/h", "value": "2 (50-74% control)"},
      {"measurement": "post-emergence herbicidal activity index", "setting": "Sorghum; 5.6 kg/h", "value": "3 (75-99% control)"},
      {"measurement": "post-emergence herbicidal activity index", "setting": "Soybean; 1.12 kg/h", "value": "1 (25-49% control)"},
      {"measurement": "post-emergence herbicidal activity index", "setting": "Soybean; 5.6 kg/h", "value": "2 (50-74% control)"},
      {"measurement": "post-emergence herbicidal activity index", "setting": "Sugar Beet; 1.12 kg/h", "value": "1 (25-49% control)"},
      {"measurement": "post-emergence herbicidal activity index", "setting": "Sugar Beet; 5.6 kg/h", "value": "1 (25-49% control)"},
      {"measurement": "post-emergence herbicidal activity index", "setting": "Velvetleaf; Table I, 5.6 kg/h", "value": "1 (25-49% control)"},
      {"measurement": "post-emergence herbicidal activity index", "setting": "Velvetleaf; Table I, 11.2 kg/h", "value": "0 (0-24% control)"},
      {"measurement": "post-emergence herbicidal activity index", "setting": "Velvetleaf; Table II, 1.12 kg/h", "value": "0 (0-24% control)"},
      {"measurement": "post-emergence herbicidal activity index", "setting": "Velvetleaf; Table II, 5.6 kg/h", "value": "2 (50-74% control)"},
      {"measurement": "post-emergence herbicidal activity index", "setting": "Wheat; 1.12 kg/h", "value": "0 (0-24% control)"},
      {"measurement": "post-emergence herbicidal activity index", "setting": "Wheat; 5.6 kg/h", "value": "1 (25-49% control)"},
      {"measurement": "post-emergence herbicidal activity index", "setting": "Wild Buckwheat; 1.12 kg/h", "value": "0 (0-24% control)"},
      {"measurement": "post-emergence herbicidal activity index", "setting": "Wild Buckwheat; 5.6 kg/h", "value": "1 (25-49% control)"},
      {"measurement": "post-emergence herbicidal activity index", "setting": "Yellow Nutsedge; 5.6 kg/h", "value": "2 (50-74% control)"},
      {"measurement": "post-emergence herbicidal activity index", "setting": "Yellow Nutsedge; 11.2 kg/h", "value": "2 (50-74% control)"}
    ]}
  ]
}
